Reference: patent US20120190752A1, “EXO-S-MECAMYLAMINE METHOD, USE, AND COMPOUND FOR TREATMENT” (Targacept Inc., priority 2009, published 2012)

Tested on: subjects with major depressive disorder (MDD) who were inadequate responders to citalopram
Experiment: HAMD-17 total score, Phase 2b trial of TC-5214 as add-on to citalopram
Format: in vivo, human
Settings: for HAMD-17 total score, observed Mean / HAMD-17 total score, observed Median / HAMD-17 Remission (Score ≦7): Subjects with Remission (number) / HAMD-17 Remission (Score ≦7): Subjects with Remission (percentage) / HAMD-17 Remission (Score ≦7): Subjects without Remission (number) / HAMD-17 Remission (Score ≦7): Subjects without Remission (percentage) / HAMD-17 Remission (Score ≦10): Subjects with Remission (number) / HAMD-17 Remission (Score ≦10): Subjects with Remission (percentage) / HAMD-17 Remission (Score ≦10): Subjects without Remission (number) / HAMD-17 Remission (Score ≦10): Subjects without Remission (percentage) / HAMD-17 reduction from baseline ≧50%: Subjects with Response (number) / HAMD-17 reduction from baseline ≧50%: Subjects with Response (percentage) / HAMD-17 reduction from baseline ≧50%: Subjects without Response (number) / HAMD-17 reduction from baseline ≧50%: Subjects without Response (percentage) / HAMD-17 Adjusted Mean change / HAMD-17 Mean Difference between TC-5214 and Placebo: PP; for primary outcome: mean change between TC-5214 and placebo from baseline on HAM-D (HAMD-17 total score): intent to treat, Week 8 to Week 16 LOCF, result in words
Excerpt: The Hamilton Rating Scale for Depression (HRSD), also known as the Hamilton Depression Rating Scale (HDRS) or abbreviated to HAM-D or HAMD, is a multiple choice questionnaire that clinicians may use to rate the severity of a patient's major depression (Hamilton 1967). The questionnaire rates the severity of symptoms observed in depression such as low mood, insomnia, agitation, anxiety and weight loss. The questionnaire is presently one of the most commonly used scales for rating depression in medical research. The clinician chooses the possible responses to each question by interviewing the patient and by observing the patient's symptoms. Each question has multiple possible responses which increase in severity. Although Hamilton's original scale had 17 questions, others later developed HRSD scales with different numbers of questions, the greatest of which is 29 (HRSD-29). Clinicians can use the HRSD in place of, or in conjunction with, the Montgomery-Åsberg Depression Rating Scale (MADRS), the Beck Depression Inventory (BDI), the Zung Self-Rating Depression Scale, the Wechsler Depression Rating Scale, the […] Depression Rating Scale, the Inventory of Depressive Symptomatology (IDS), the Quick Inventory of Depressive Symptomatology (QIDS), and other questionnaires. […] The results on all of the trial's secondary efficacy measures, including assessments of depression, irritability, disability, cognition, severity of illness and global improvement, were also statistically significant in favor of TC-5214 on an intent to treat basis. The Phase 2b trial of TC-5214 as an augmentation treatment for MDD was a two-phase trial conducted at 20 sites in India and three sites in the United States. In the first phase, 579 subjects with MDD received first-line treatment with citalopram hydrobromide for eight weeks, 20 mg daily for the first four weeks and 40 mg daily for the next four weeks. Citalopram, an approved treatment for MDD marketed in the United States as […]®, is from the drug class known as selective serotonin reuptake inhibitors. At the end of the eight weeks, subjects whose MADRS score had improved less than 50 percent and whose CGI-SI score was no lower than 4 were considered partial or non responders and randomized into the double blind second phase of the trial. In the double blind second phase, subjects continued their citalopram treatment and also received either add-on TC-5214 or add-on placebo for an additional eight weeks. The daily dosage of TC-5214 was initially 2 mg and could be increased at the discretion of the investigator to 4 mg and to 8 mg based on tolerability and therapeutic response. The primary outcome measure for the trial was mean change between TC-5214 and placebo from double blind baseline as measured by HAM-D at week 16. The intent to treat dataset included 265 subjects in the second phase. In more detail, a multi-center double-blind, randomized, placebo-controlled, parallel group, flexible dose titration study of TC-5214 as adjunctive therapy in subjects with major depressive disorder (MDD) who were inadequate responders to citalopram was conducted in centers in the US and India. The study consisted of a screening period, baseline/washout period, open-label phase, double-blind phase, and a follow-up visit. Subject participation in the study could continue for up to 16 weeks of treatment. Following a washout period of up to 28 days for other antidepressants, subjects with MDD and a MADRS total score >/=28 and a Clinical Global Impression-Severity (CGI-S) score >/=4 were enrolled on Day 1 into an open-label citalopram-only phase of the study. This phase lasted 8 weeks, with citalopram (CIT) dose increased from a once-daily dose of 20 mg (Day 1 through Week 4) to 40 mg (Week 4 through Week 8). A total of 579 subjects entered the open-label citalopram phase. […]

[1] = Double Blind Week 8 (Baseline), before TC-5214
[2] = Double Blind Week 16 LOCF (change from Week 8)
[3] = Double Blind Week 18 (Follow-up)
[4] = Double Blind Week 18 LOCF (Follow-up)
[5] = Double Blind Week 18 LOCF (Follow-up), change from Week 16

CNC1(C)C2CCC(C2)C1(C)C (stereo in doubt) [TC-5214, (S)—N,2,3,3-tetramethylnorbornan-2-amine]
HAMD-17 Adj. Mean change (ITT, change from Week 8 (double-blind baseline) to Week 16 LOCF, add-on to citalopram): −13.75
onset of separation from placebo, remission rates HAMD≦7 (FIG. 1) (ITT, week of double-blind treatment): ≤ 2 week
HAMD-17 total score, observed Mean [1]: 23.7
HAMD-17 total score, observed Median [1]: 24.0
HAMD-17 Remission (Score ≦7): Subjects with Remission (number) (Double Blind Week 9): 1
HAMD-17 Remission (Score ≦7): Subjects with Remission (percentage) (Double Blind Week 9): (1%)
HAMD-17 Remission (Score ≦7): Subjects without Remission (number) (Double Blind Week 9): 112
HAMD-17 Remission (Score ≦7): Subjects without Remission (percentage) (Double Blind Week 9): (99%)
HAMD-17 Remission (Score ≦10): Subjects with Remission (number) (Double Blind Week 9): 3
HAMD-17 Remission (Score ≦10): Subjects with Remission (percentage) (Double Blind Week 9): (3%)
HAMD-17 Remission (Score ≦10): Subjects without Remission (number) (Double Blind Week 9): 110
HAMD-17 Remission (Score ≦10): Subjects without Remission (percentage) (Double Blind Week 9): (97%)
HAMD-17 reduction from baseline ≧50%: Subjects with Response (number) (Double Blind Week 9): 3
HAMD-17 reduction from baseline ≧50%: Subjects with Response (percentage) (Double Blind Week 9): (3%)
HAMD-17 reduction from baseline ≧50%: Subjects without Response (number) (Double Blind Week 9): 110
HAMD-17 reduction from baseline ≧50%: Subjects without Response (percentage) (Double Blind Week 9): (97%)
HAMD-17 Remission (Score ≦7): Subjects with Remission (number) (Double Blind Week 10): 4
HAMD-17 Remission (Score ≦7): Subjects with Remission (percentage) (Double Blind Week 10): (4%)
HAMD-17 Remission (Score ≦7): Subjects without Remission (number) (Double Blind Week 10): 109
HAMD-17 Remission (Score ≦7): Subjects without Remission (percentage) (Double Blind Week 10): (96%)
HAMD-17 Remission (Score ≦10): Subjects with Remission (number) (Double Blind Week 10): 16
HAMD-17 Remission (Score ≦10): Subjects with Remission (percentage) (Double Blind Week 10): (14%)
HAMD-17 Remission (Score ≦10): Subjects without Remission (number) (Double Blind Week 10): 97
HAMD-17 Remission (Score ≦10): Subjects without Remission (percentage) (Double Blind Week 10): (86%)
HAMD-17 reduction from baseline ≧50%: Subjects with Response (number) (Double Blind Week 10): 20
HAMD-17 reduction from baseline ≧50%: Subjects with Response (percentage) (Double Blind Week 10): (18%)
HAMD-17 reduction from baseline ≧50%: Subjects without Response (number) (Double Blind Week 10): 93
HAMD-17 reduction from baseline ≧50%: Subjects without Response (percentage) (Double Blind Week 10): (82%)
HAMD-17 Remission (Score ≦7): Subjects with Remission (number) (Double Blind Week 12): 16
HAMD-17 Remission (Score ≦7): Subjects with Remission (percentage) (Double Blind Week 12): (14%)
HAMD-17 Remission (Score ≦7): Subjects without Remission (number) (Double Blind Week 12): 97
HAMD-17 Remission (Score ≦7): Subjects without Remission (percentage) (Double Blind Week 12): (86%)
HAMD-17 Remission (Score ≦10): Subjects with Remission (number) (Double Blind Week 12): 36
HAMD-17 Remission (Score ≦10): Subjects with Remission (percentage) (Double Blind Week 12): (32%)
HAMD-17 Remission (Score ≦10): Subjects without Remission (number) (Double Blind Week 12): 77
HAMD-17 Remission (Score ≦10): Subjects without Remission (percentage) (Double Blind Week 12): (68%)
HAMD-17 reduction from baseline ≧50%: Subjects with Response (number) (Double Blind Week 12): 40
HAMD-17 reduction from baseline ≧50%: Subjects with Response (percentage) (Double Blind Week 12): (35%)
HAMD-17 reduction from baseline ≧50%: Subjects without Response (number) (Double Blind Week 12): 73
HAMD-17 reduction from baseline ≧50%: Subjects without Response (percentage) (Double Blind Week 12): (65%)
HAMD-17 Remission (Score ≦7): Subjects with Remission (number) (Double Blind Week 14): 35
HAMD-17 Remission (Score ≦7): Subjects with Remission (percentage) (Double Blind Week 14): (31%)
HAMD-17 Remission (Score ≦7): Subjects without Remission (number) (Double Blind Week 14): 78
HAMD-17 Remission (Score ≦7): Subjects without Remission (percentage) (Double Blind Week 14): (69%)
HAMD-17 Remission (Score ≦10): Subjects with Remission (number) (Double Blind Week 14): 53
HAMD-17 Remission (Score ≦10): Subjects with Remission (percentage) (Double Blind Week 14): (47%)
HAMD-17 Remission (Score ≦10): Subjects without Remission (number) (Double Blind Week 14): 60
HAMD-17 Remission (Score ≦10): Subjects without Remission (percentage) (Double Blind Week 14): (53%)
HAMD-17 reduction from baseline ≧50%: Subjects with Response (number) (Double Blind Week 14): 67
HAMD-17 reduction from baseline ≧50%: Subjects with Response (percentage) (Double Blind Week 14): (59%)
HAMD-17 reduction from baseline ≧50%: Subjects without Response (number) (Double Blind Week 14): 46
HAMD-17 reduction from baseline ≧50%: Subjects without Response (percentage) (Double Blind Week 14): (41%)
HAMD-17 Remission (Score ≦7): Subjects with Remission (number) (Double Blind Week 16): 50
HAMD-17 Remission (Score ≦7): Subjects with Remission (percentage) (Double Blind Week 16): (44%)
HAMD-17 Remission (Score ≦7): Subjects without Remission (number) (Double Blind Week 16): 63
HAMD-17 Remission (Score ≦7): Subjects without Remission (percentage) (Double Blind Week 16): (56%)
HAMD-17 Remission (Score ≦10): Subjects with Remission (number) (Double Blind Week 16): 75
HAMD-17 Remission (Score ≦10): Subjects with Remission (percentage) (Double Blind Week 16): (66%)
HAMD-17 Remission (Score ≦10): Subjects without Remission (number) (Double Blind Week 16): 38
HAMD-17 Remission (Score ≦10): Subjects without Remission (percentage) (Double Blind Week 16): (34%)
HAMD-17 reduction from baseline ≧50%: Subjects with Response (number) (Double Blind Week 16): 84
HAMD-17 reduction from baseline ≧50%: Subjects with Response (percentage) (Double Blind Week 16): (74%)
HAMD-17 reduction from baseline ≧50%: Subjects without Response (number) (Double Blind Week 16): 29
HAMD-17 reduction from baseline ≧50%: Subjects without Response (percentage) (Double Blind Week 16): (26%)
HAMD-17 total score, observed Mean (Double Blind Week 16 LOCF): 9.1
HAMD-17 total score, observed Median (Double Blind Week 16 LOCF): 8.0
HAMD-17 Adjusted Mean change [2]: −14.64
HAMD-17 Mean Difference between TC-5214 and Placebo [2]: 6.10
HAMD-17 Remission (Score ≦7): Subjects with Remission (number) [3]: 58
HAMD-17 Remission (Score ≦7): Subjects with Remission (percentage) [3]: (51%)
HAMD-17 Remission (Score ≦7): Subjects without Remission (number) [3]: 55
HAMD-17 Remission (Score ≦7): Subjects without Remission (percentage) [3]: (49%)
HAMD-17 Remission (Score ≦10): Subjects with Remission (number) [3]: 77
HAMD-17 Remission (Score ≦10): Subjects with Remission (percentage) [3]: (68%)
HAMD-17 Remission (Score ≦10): Subjects without Remission (number) [3]: 36
HAMD-17 Remission (Score ≦10): Subjects without Remission (percentage) [3]: (32%)
HAMD-17 reduction from baseline ≧50%: Subjects with Response (number) [3]: 83
HAMD-17 reduction from baseline ≧50%: Subjects with Response (percentage) [3]: (73%)
HAMD-17 reduction from baseline ≧50%: Subjects without Response (number) [3]: 30
HAMD-17 reduction from baseline ≧50%: Subjects without Response (percentage) [3]: (27%)
HAMD-17 total score, observed Mean [4]: 8.6
HAMD-17 total score, observed Median [4]: 7.0
HAMD-17 Adjusted Mean change [5]: −0.83
HAMD-17 Mean Difference between TC-5214 and Placebo [5]: −0.01
primary outcome: mean change between TC-5214 and placebo from baseline on HAM-D (HAMD-17 total score): highly statistically significant in favor of TC-5214
primary outcome: mean change between TC-5214 and placebo from baseline on HAM-D (HAMD-17 total score) (listed as TC-5214-23): statistically significant favoring TC-5214-23
